Columns and labels:
Ret(h) = Ret(h) (Homo sapiens, UniProt P07949); assay: Protein kinase inhibition assay; format: biochemical; details: read-out: percent residual activity of Ret(h)
Experimental: (§1) Certain compounds were tested for activity in protein kinase inhibition assays. All substrates were dissolved and diluted to working stocks in de-ionized water, apart from histone H1 (10× working stock in 20 mM MOPS pH 7.0), PDKtide (10× working stock in 50 mM Tris pH 7.0) ATF2 (which is typically stored at a 20× working stock in 50 mM Tris pH 7.5, 150 mM NaCl, 0.1 mM EGTA, 0.03% Brij-35, 50% glycerol, 1 mM benzamidine, 0.2 mM PMSF and 0.1% R-mercaptoethanol), KKLNRTLSFAEPG (SEQ ID NO:203) and RRRLSFAEPG (SEQ ID NO:204) (50 mM HEPES pH 7.4) and GGEEEEYFELVKKKK (SEQ ID NO:205) (20 mM MOPS pH 7.0). All kinases were pre-diluted to a 10× working concentration prior to addition into the assay. The composition of the dilution buffer for each kinase is detailed below.
(§2) In a final reaction volume of 25 μl, Ret (h) (5-10 mU) is incubated with 8 mM MOPS pH 7.0, 0.2 mM EDTA, 250 μM KKKSPGEYVNIEFG (SEQ ID NO:207), 10 mM MgAcetate and [gamma-33P-ATP] (specific activity approx. 500 cpm/pmol, concentration as required). The reaction is initiated by the addition of the MgATP mix. After incubation for 40 minutes at room temperature, the reaction is stopped by the addition of 5 μl of a 3% phosphoric acid solution. 10 μl of the reaction is then spotted onto a P30 filtermat and washed three times for 5 minutes in 75 mM phosphoric acid and once in methanol prior to drying and scintillation counting.

EphA2(h) = EphA2(h) (Homo sapiens, UniProt P29317); assay: Protein kinase inhibition assay; format: biochemical; details: read-out: percent residual activity of EphA2(h)
Experimental: as §1
as §2, with “EphA2” for “Ret”, “0.1 mg/ml poly(Glu, Tyr) 4:1,” for “250 μM KKKSPGEYVNIEFG (SEQ ID NO:207),”, “Filtermat A” for “P30 filtermat”

PDGFRα(h) = PDGFRα(h) (Homo sapiens, UniProt P16234); assay: Protein kinase inhibition assay; format: biochemical; details: read-out: percent residual activity of PDGFRα(h)
Experimental: as §1
as §2, with “PDGFRα” for “Ret”, “0.1 mg/ml poly(Glu, Tyr) 4:1, 10 mM MnCl2,” for “250 μM KKKSPGEYVNIEFG (SEQ ID NO:207),”, “Filtermat A” for “P30 filtermat”

SGK2(h) = SGK2(h) (Homo sapiens, UniProt Q9HBY8); assay: Protein kinase inhibition assay; format: biochemical; details: read-out: percent residual activity of SGK2(h)
Experimental: as §1
as §2, with “SGK2” for “Ret”, “30” for “250”, “GRPRTSSFAEGKK” for “KKKSPGEYVNIEFG”, “NO:226),” for “NO:207),”

[1] = test system: c-myc mRNA in HCT116 cells; assay: RNA Polymerase II-dependent RNA synthesis (c-myc mRNA, Taqman qRT-PCR); format: cell-based; details: at the tested concentrations
Experimental: Effects of compound A-1 and compound B-1 on DNA synthesis, RNA synthesis and protein synthesis were determined in HCT116 cells. HCT116 cells were plated overnight at 100,000 cells per mL. Next day cells were treated with increasing amounts of either compound A-1 or compound B-1 followed by one hour incubation with BrdU label (from a BrdU Cell proliferation Assay Kit, Calbiochem) to monitor DNA synthesis; […] of ^3H-uridine to monitor total RNA synthesis; […] of ^3H-methionine to monitor protein synthesis or plain media to monitor RNA Polymerase II-dependent RNA synthesis. DNA synthesis was assessed using a BrdU-ELISA (BrdU Cell proliferation Assay Kit, Calbiochem). To measure total RNA synthesis, total RNA from treated cells was isolated with a RNease kit (QIAGEN), levels of total RNA were assessed with Ribogreen reagent (Invitrogen) and the newly synthesized tritiated RNA was measured in a scintillation Counter (Perkin Elmer). To measure effects on protein synthesis, cells were lysed in a RIPA buffer, and total protein was precipitated with 10% TCA on a glass-filters. Newly synthesized tritiated protein was measured in a scintillation Counter (Perkin Elmer). Effects of drugs on […] RNA synthesis were assessed by monitoring levels of a c-myc mRNA, which has a relatively short half-life of approximately 30 minutes, by Taqman qRT-PCR (ABI).

Aurora-A(h) = Aurora-A(h) (Homo sapiens, UniProt O14965); assay: Protein kinase inhibition assay; format: biochemical; details: read-out: percent residual activity of Aurora-A(h)
Experimental: as §1
In a final reaction volume of 25 μl, Aurora-A (h) (5-10 mU) is incubated with 8 mM MOPS pH 7.0, 0.2 mM EDTA, 200 μM LRRASLG (SEQ ID NO:209) (Kemptide), 10 mM MgAcetate and [gamma-33P-ATP] (specific activity approx. 500 cpm/pmol, concentration as required). The reaction is initiated by the addition of the MgATP mix. After incubation for 40 minutes at room temperature, the reaction is stopped by the addition of 5 μl of a 3% phosphoric acid solution. […]

Chain of Aurora-A(h) (O14965 whole entry): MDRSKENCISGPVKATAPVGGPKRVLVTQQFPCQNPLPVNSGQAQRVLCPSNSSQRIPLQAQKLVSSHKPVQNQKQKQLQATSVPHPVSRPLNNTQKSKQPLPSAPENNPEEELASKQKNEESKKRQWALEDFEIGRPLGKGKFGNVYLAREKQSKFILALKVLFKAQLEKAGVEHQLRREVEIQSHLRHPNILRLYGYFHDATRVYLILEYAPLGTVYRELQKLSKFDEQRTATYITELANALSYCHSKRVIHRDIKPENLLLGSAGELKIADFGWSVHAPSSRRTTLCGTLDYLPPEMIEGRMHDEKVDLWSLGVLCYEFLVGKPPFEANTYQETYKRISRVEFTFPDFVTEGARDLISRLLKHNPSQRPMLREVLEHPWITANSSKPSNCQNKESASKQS
Chain of Ret(h) (P07949 29-1114): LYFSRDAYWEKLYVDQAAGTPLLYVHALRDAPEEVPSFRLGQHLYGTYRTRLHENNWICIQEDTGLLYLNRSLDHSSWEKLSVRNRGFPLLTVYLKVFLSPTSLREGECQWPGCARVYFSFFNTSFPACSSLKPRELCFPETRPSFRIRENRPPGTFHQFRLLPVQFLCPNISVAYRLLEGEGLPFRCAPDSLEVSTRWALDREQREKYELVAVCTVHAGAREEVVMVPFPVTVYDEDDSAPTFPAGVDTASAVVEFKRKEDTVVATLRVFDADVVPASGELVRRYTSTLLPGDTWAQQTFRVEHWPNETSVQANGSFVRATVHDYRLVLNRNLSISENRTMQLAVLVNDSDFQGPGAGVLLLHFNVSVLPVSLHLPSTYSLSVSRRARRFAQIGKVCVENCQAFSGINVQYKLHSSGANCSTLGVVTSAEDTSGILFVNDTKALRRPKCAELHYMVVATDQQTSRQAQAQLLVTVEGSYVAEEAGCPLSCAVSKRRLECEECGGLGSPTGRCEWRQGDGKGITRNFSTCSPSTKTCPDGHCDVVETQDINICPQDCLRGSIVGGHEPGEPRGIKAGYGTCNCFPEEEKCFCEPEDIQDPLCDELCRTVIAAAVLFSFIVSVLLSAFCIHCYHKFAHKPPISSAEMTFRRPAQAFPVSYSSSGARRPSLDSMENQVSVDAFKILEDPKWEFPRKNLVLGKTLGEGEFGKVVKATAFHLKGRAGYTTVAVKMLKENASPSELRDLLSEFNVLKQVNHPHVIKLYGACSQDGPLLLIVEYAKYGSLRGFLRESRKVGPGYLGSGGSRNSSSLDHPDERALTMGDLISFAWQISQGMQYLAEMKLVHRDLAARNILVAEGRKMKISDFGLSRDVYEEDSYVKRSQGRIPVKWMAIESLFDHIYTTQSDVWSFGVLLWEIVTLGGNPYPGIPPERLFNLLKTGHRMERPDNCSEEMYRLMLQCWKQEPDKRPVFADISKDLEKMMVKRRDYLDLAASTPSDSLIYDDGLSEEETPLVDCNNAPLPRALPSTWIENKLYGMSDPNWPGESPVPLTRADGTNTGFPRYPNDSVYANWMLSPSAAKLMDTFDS
Chain of SGK2(h) (Q9HBY8 whole entry): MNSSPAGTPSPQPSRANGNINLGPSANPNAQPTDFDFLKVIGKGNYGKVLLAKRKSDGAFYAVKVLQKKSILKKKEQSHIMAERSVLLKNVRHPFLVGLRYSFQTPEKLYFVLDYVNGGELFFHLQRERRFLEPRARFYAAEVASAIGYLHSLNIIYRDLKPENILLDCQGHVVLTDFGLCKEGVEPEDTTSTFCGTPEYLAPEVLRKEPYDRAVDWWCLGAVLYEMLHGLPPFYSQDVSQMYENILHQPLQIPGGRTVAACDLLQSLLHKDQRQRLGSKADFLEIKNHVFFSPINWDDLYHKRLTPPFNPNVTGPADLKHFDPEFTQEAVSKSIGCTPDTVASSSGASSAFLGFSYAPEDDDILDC
Chain of PDGFRα(h) (P16234 24-1089): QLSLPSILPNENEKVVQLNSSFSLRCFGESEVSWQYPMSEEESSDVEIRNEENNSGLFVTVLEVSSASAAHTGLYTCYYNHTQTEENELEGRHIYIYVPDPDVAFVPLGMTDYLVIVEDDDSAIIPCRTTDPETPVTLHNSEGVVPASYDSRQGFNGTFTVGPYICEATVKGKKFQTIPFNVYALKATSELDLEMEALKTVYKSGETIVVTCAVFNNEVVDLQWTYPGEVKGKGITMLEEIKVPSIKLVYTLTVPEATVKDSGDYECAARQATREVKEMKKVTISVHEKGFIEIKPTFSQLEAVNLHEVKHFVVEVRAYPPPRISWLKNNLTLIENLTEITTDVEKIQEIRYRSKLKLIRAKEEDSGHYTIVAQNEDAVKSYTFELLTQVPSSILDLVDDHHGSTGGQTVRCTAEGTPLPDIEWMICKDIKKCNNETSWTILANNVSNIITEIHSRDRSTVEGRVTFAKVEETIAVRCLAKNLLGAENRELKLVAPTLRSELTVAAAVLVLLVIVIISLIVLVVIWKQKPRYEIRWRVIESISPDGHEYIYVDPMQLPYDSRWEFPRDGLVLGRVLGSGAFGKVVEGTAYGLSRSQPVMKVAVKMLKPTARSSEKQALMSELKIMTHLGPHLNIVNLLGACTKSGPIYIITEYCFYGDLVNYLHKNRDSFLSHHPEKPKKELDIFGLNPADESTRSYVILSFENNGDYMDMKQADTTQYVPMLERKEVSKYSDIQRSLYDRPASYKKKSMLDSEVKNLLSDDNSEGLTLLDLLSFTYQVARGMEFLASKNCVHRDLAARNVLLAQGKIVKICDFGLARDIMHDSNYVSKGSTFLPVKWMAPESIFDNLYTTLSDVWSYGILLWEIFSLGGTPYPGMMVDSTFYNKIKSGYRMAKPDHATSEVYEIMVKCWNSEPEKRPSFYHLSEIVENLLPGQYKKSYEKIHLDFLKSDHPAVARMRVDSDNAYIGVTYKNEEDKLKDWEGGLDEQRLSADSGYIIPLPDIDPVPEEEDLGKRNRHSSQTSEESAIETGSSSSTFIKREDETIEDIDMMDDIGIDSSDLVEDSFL
Chain of EphA2(h) (P29317 24-976): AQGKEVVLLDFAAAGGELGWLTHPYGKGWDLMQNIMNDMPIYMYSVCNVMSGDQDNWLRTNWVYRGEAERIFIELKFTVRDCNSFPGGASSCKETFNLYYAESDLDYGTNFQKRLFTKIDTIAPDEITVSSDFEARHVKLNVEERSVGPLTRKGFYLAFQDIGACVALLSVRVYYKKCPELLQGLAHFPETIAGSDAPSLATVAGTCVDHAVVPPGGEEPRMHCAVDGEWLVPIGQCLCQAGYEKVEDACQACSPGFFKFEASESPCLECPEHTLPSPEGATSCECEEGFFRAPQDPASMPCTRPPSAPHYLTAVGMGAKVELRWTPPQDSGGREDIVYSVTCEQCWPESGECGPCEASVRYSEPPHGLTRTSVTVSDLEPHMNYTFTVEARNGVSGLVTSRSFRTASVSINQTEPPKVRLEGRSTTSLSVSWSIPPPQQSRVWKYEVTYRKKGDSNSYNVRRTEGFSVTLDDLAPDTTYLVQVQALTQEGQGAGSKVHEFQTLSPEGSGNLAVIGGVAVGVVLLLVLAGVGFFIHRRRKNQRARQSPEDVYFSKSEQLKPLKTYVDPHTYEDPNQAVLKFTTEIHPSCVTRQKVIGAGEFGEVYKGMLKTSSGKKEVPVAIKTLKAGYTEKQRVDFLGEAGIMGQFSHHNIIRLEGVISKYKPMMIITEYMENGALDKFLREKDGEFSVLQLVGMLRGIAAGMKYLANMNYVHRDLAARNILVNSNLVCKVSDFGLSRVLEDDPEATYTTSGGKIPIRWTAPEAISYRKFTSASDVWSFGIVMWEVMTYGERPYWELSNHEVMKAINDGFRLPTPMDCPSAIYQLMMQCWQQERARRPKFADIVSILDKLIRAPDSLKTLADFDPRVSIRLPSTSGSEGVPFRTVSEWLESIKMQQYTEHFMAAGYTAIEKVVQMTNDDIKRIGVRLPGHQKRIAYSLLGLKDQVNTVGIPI

Row | SMILES | remaining activity at 2.5 µM (Ret(h)) [%] | remaining activity at 2.5 µM (EphA2(h)) [%] | remaining activity at 2.5 µM (PDGFRα(h)) [%] | remaining activity at 2.5 µM (SGK2(h)) [%] | effect on c-myc mRNA levels [1] | remaining activity at 2.5 µM (Aurora-A(h)) [%]
1 | CN1CCCC1CCNC(=O)c1cn2c3c(c(N4CCC(c5cnccn5)C4)c(F)cc3c1=O)Oc1cc3ccccc3cc1-2 (stereo not drawn) [Compound A-1] | 123 | 101 | 108 | 38 | no measureable effect | 43
2 | CC(=O)N1CCN(c2ccc3c(=O)c(C(=O)NCCN4CCCC4)c4n(C)c5ccccc5n4c3n2)CC1 [Compound B-1] | 92 | 102 | 106 | 104 | no measureable effect | 104

— patent US20070117770A1, “Human ribosomal DNA (rDNA) and ribosomal RNA (rRNA) nucleic acids and uses thereof” (Cylene Pharmaceuticals, Inc., priority 2005, published 2007)
